Patent US20010051374A1, “HIGH […] MO[…]” (priority 1997, published 2001)

Test system: 293 cells
Experiment: Coamatic Factor VIII assay of supernatants of 293 cells infected with rAAV
Type: cell-based, human
Parameters: dose or concentration left out as unconfirmed
Conditions: etoposide added to medium of cells co-infected with rAAV-80L and rAAV-90H
Protocol: The heavy and light chain constructs, pKm201-80L and pKm201-90H, were packaged following standard procedures for the production of rAAV (Zhou et al. (1994) J. Exp. Med. 179:1867-1875). rAAV was purified as described (Wang et al. (1995) Proc. Natl. Acad. Sci. USA 92:12416-12420) and used to infect 293 cells plated in 6-well plates. Supernatants of infected cells were collected 48 h after infection and assayed for biologically active factor VIII by Coamatic Factor VIII (KabiVitrum, Stockholm), following the manufacturer's instructions. Normal human plasma (George King Bio-Medical, Inc., Overland Park, Kans.) was used to generate a standard curve. Cells were infected at a multiplicity of infection (MOI) of 6000 rAAV particles per cell. The experiment was done both with and without the addition of etoposide ([…]) to the medium. […] The amount of factor VIII was increased in the presence of etoposide.

COc1cc([C@@H]2c3cc4c(cc3[C@@H](O[C@@H]3O[C@@H]5CO[C@@H](C)O[C@H]5[C@H](O)[C@H]3O)[C@H]3COC(=O)[C@H]23)OCO4)cc(OC)c1O [etoposide]
amount of factor VIII: increased
